These results are taken from PubChem BioAssay (NCI).

The structures appear in SMILES notation.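 Cells were grown in 96-well plates and exposed to each compound for 48 hours at five concentrations; endpoints were interpolated linearly between bracketing concentrations, or set to the highest concentration if not reached. TGI: concentration producing complete growth inhibition.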 Some results are limits rather than exact numbers.

Some test systems named below: SF-268 CNS; HT29 colon; NCI/ADR-RES ovarian; NCI-H226 lung; TK-10 renal; EKVX NSCLC; HL-60(TB) leukemia; SK-MEL-2 melanoma; SK-MEL-5 melanoma; ACHN renal.
Assay in all cases: growth of human tumour cells (NCI), 48 h

`c1cc(CSc2ncnc3nc[nH]c23)ccn1`: the TGI in the experiment with SF-268 CNS, with HT29 colon, with NCI/ADR-RES ovarian, in the experiment on NCI-H226 lung, in the experiment with TK-10 renal and in the experiment with EKVX NSCLC was over 100 µM in each case. For the same molecule, the TGI in the experiment with HL-60(TB) leukemia, in the experiment on SK-MEL-2 melanoma, in the experiment with SK-MEL-5 melanoma and in the experiment on ACHN renal was over 100 µM in each case.
Take `C/C(=N\O)c1cccc(Nc2c3ccccc3nc3occc23)c1`: the TGI in the experiment with SF-268 CNS is 56.9 µM; with HT29 colon it was 95.7 µM; in the experiment with NCI/ADR-RES ovarian, over 100 µM; in the experiment with NCI-H226 lung it was 54.8 µM; with TK-10 renal, 44.3 µM; in the experiment with EKVX NSCLC, 50.6 µM. For the same molecule, the TGI in the experiment on HL-60(TB) leukemia is over 100 µM; in the experiment on SK-MEL-2 melanoma, 25.2 µM; in the experiment with SK-MEL-5 melanoma it was over 100 µM; in the experiment on ACHN renal, 38.6 µM.
Take `CC(C)c1c(O[Si](C(C)C)(C(C)C)C(C)C)cc2c(c1O)CC[C@H]1C(C)(C)CCC[C@]21C`: the TGI in the experiment on SF-268 CNS, in the experiment with HT29 colon, in the experiment with NCI/ADR-RES ovarian, in the experiment with NCI-H226 lung, in the experiment on TK-10 renal and in the experiment on EKVX NSCLC was over 100 µM each time. For the same molecule, the TGI is 60.4 µM in the experiment with HL-60(TB) leukemia, over 100 µM in the experiment on SK-MEL-2 melanoma, over 100 µM in the experiment on SK-MEL-5 melanoma and over 100 µM in the experiment on ACHN renal.
Regarding `CN(C)NC1=NS(=O)(=O)c2cc3c(=O)n(C)[nH]c3cc2S1`, the TGI with SF-268 CNS, in the experiment on HT29 colon, in the experiment with NCI/ADR-RES ovarian, in the experiment on NCI-H226 lung, in the experiment with TK-10 renal and with EKVX NSCLC was over 10 µM in each case. The TGI with HL-60(TB) leukemia, with SK-MEL-2 melanoma, with SK-MEL-5 melanoma and in the experiment with ACHN renal was over 10 µM throughout.
As for `S=C(S)NCCN1CCNCC1`, the TGI with SF-268 CNS was over 100 µM; with HT29 colon, over 100 µM; in the experiment on NCI/ADR-RES ovarian it was over 100 µM; in the experiment on NCI-H226 lung it was over 100 µM; in the experiment on TK-10 renal, 58.4 µM; with EKVX NSCLC it was over 100 µM. The TGI is 8.01 µM in the experiment with HL-60(TB) leukemia, over 100 µM in the experiment with SK-MEL-2 melanoma, over 100 µM with SK-MEL-5 melanoma and over 100 µM in the experiment with ACHN renal.
On to `CCOC(=O)c1cc([N+](=O)[O-])c(Sc2ncnc3nc[nH]c23)c([N+](=O)[O-])c1`, for which the TGI was determined as 17.8 µM in the experiment on SF-268 CNS; 14.5 µM in the experiment with HT29 colon; 14.3 µM in the experiment with NCI/ADR-RES ovarian; 17.3 µM in the experiment on NCI-H226 lung; 5.81 µM with TK-10 renal; 15.4 µM in the experiment with EKVX NSCLC. Moreover, the TGI in the experiment with HL-60(TB) leukemia came to 23.4 µM; in the experiment on SK-MEL-2 melanoma, 24.6 µM; in the experiment on SK-MEL-5 melanoma it was 23 µM; in the experiment with ACHN renal it was 19.9 µM.
As for `CC(C)C(/C=C/c1ccc(Cl)cc1)=N\NC(=O)N/N=C(/C=C/c1ccc(Cl)cc1)C(C)C`, the TGI with SF-268 CNS was 41.3 µM; in the experiment with HT29 colon, over 100 µM; with NCI/ADR-RES ovarian, 78.9 µM; with NCI-H226 lung it was 54.9 µM; in the experiment on TK-10 renal, 51.3 µM; in the experiment on EKVX NSCLC it was 50.5 µM. In addition, the TGI with HL-60(TB) leukemia is over 100 µM; in the experiment on SK-MEL-2 melanoma, 59.8 µM; in the experiment on SK-MEL-5 melanoma it was over 100 µM; with ACHN renal it was 87.3 µM.
For `CN(Cc1cnc2nc(N)nc(N)c2n1)c1ccc(C(=O)NCCCC(=O)O)cc1`, the TGI in the experiment with SF-268 CNS, in the experiment with HT29 colon, in the experiment with NCI/ADR-RES ovarian, in the experiment on NCI-H226 lung, in the experiment on TK-10 renal and with EKVX NSCLC was over 100 µM each time. Besides, the TGI in the experiment on HL-60(TB) leukemia was over 100 µM; with SK-MEL-2 melanoma, over 100 µM; in the experiment on SK-MEL-5 melanoma, over 100 µM; in the experiment on ACHN renal it was over 71.2 µM.
As to `CON[N+]([O-])=NC(C)C`, the TGI in the experiment on SF-268 CNS, in the experiment with HT29 colon, with NCI/ADR-RES ovarian, in the experiment with NCI-H226 lung, in the experiment on TK-10 renal and with EKVX NSCLC was over 100 µM throughout. Besides, the TGI in the experiment on HL-60(TB) leukemia, in the experiment on SK-MEL-2 melanoma, with SK-MEL-5 melanoma and in the experiment on ACHN renal was over 100 µM throughout.
As for `Cc1cccc(N=N/C(=N\NC(=O)c2cc(Cl)ccc2O)c2ccc(N(CCC#N)CCC#N)cc2C)c1`, the TGI in the experiment with SF-268 CNS was over 100 µM; with HT29 colon it was 74 µM; in the experiment on NCI/ADR-RES ovarian it was over 100 µM; with NCI-H226 lung, over 100 µM; in the experiment on TK-10 renal it was 76.9 µM; in the experiment with EKVX NSCLC, over 100 µM. Further, the TGI in the experiment on HL-60(TB) leukemia is 34.4 µM; with SK-MEL-2 melanoma, over 100 µM; in the experiment with SK-MEL-5 melanoma, over 100 µM; in the experiment with ACHN renal it was over 100 µM.
With `c1ccc2c(c1)-c1ccccc1C2NC1=NCCO1`, the TGI in the experiment on SF-268 CNS was over 100 µM; in the experiment on HT29 colon, 60.6 µM; in the experiment on NCI/ADR-RES ovarian it was over 100 µM; with NCI-H226 lung it was 56.3 µM; in the experiment on TK-10 renal it was 83.6 µM; in the experiment on EKVX NSCLC, over 100 µM. Moreover, the TGI in the experiment with HL-60(TB) leukemia is 48.5 µM; in the experiment on SK-MEL-2 melanoma it was 39.5 µM; in the experiment with SK-MEL-5 melanoma, 29.1 µM; in the experiment on ACHN renal, over 100 µM.
Regarding `CC1(C)N([O-])[N+](=O)C1(C)O` (centres undefined), the TGI in the experiment with SF-268 CNS, in the experiment on HT29 colon, with NCI/ADR-RES ovarian, in the experiment with NCI-H226 lung, in the experiment on TK-10 renal and with EKVX NSCLC was over 100 µM throughout. The TGI in the experiment on HL-60(TB) leukemia, in the experiment with SK-MEL-2 melanoma and with SK-MEL-5 melanoma was over 100 µM each time.
As to `OC(Cc1cc(CC(O)(C(F)(F)F)C(F)(F)F)nc(CC(O)(C(F)(F)F)C(F)(F)F)c1)(C(F)(F)F)C(F)(F)F`, the TGI in the experiment on SF-268 CNS was 4.87 µM; in the experiment with HT29 colon, 6.24 µM; with NCI/ADR-RES ovarian, 6.32 µM; in the experiment with NCI-H226 lung, 7.58 µM; in the experiment on TK-10 renal, over 10 µM; in the experiment with EKVX NSCLC, 9.32 µM. The TGI in the experiment on HL-60(TB) leukemia was over 10 µM; with SK-MEL-2 melanoma, 4.31 µM; in the experiment with SK-MEL-5 melanoma it was 2.84 µM; in the experiment with ACHN renal, over 10 µM.
